Experiments:
Type in all cases: in vivo
[1] = test system: Foxtail, Giant (giant foxtail, Setaria faberi); assay: Test A postemergence, Foxtail, Giant; conditions: Postemergence, 0 to 100 scale (0 no effect, 100 complete control); for Plant response rating, Foxtail, Giant: 125 g ai/ha; for Foxtail, Giant plant response rating: 500 g ai/ha, visual injury vs untreated controls after approx. 10 days
Summary of the method: (§1)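 Greenhouse pot test in a loam–sand blend; compounds delivered in a non-phytotoxic solvent carrying a surfactant, applied either as a directed spray to soil at seeding or over seedlings 2 to 10 cm high with one to two leaves.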

[2] = test system: pigweed (Amaranthus retroflexus); assay: Test A preemergence, pigweed; conditions: 0 to 100 scale (0 no effect, 100 complete control)
Summary of the method: (§2)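 Directed soil spray at planting gave the preemergence treatment, while foliar application to one- to two-leaf seedlings (2–10 cm) gave the postemergence one; pots held a loam and sand mixture and chemicals were carried in a non-phytotoxic solvent with surfactant.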

[3] = test system: barnyardgrass (Echinochloa crus-galli); assay: Test A preemergence, barnyardgrass; conditions: Preemergence, 0 to 100 scale (0 no effect, 100 complete control)
Summary of the method: as §1

[4] = test system: Ryegrass, Italian (Italian ryegrass, Lolium multiflorum); assay: Test A preemergence, Ryegrass, Italian; conditions: Preemergence, 0 to 100 scale (0 no effect, 100 complete control)
Summary of the method: as §1

[5] = test system: galium (catchweed bedstraw, Galium aparine); assay: Test A postemergence, galium; conditions: Postemergence, 0 to 100 scale (0 no effect, 100 complete control); for Plant response rating, Galium: 125 g ai/ha; for Galium plant response rating: 500 g ai/ha, visual injury vs untreated controls after approx. 10 days
Summary of the method: as §2

[6] = test system: Ryegrass, Italian (Italian ryegrass, Lolium multiflorum); assay: Test A postemergence, Ryegrass, Italian; conditions: Postemergence, 0 to 100 scale (0 no effect, 100 complete control); for Plant response rating, Ryegrass, Italian: 125 g ai/ha; for Ryegrass, Italian plant response rating: 500 g ai/ha, visual injury vs untreated controls after approx. 10 days
Summary of the method: as §1

[7] = test system: wheat (Triticum aestivum); assay: Test A postemergence, wheat; conditions: Postemergence, 0 to 100 scale (0 no effect, 100 complete control); for Plant response rating, Wheat: 125 g ai/ha; for Wheat plant response rating: 500 g ai/ha, visual injury vs untreated controls after approx. 10 days
Summary of the method: as §2

[8] = test system: pigweed (Amaranthus retroflexus); assay: Test A postemergence, pigweed; conditions: Postemergence, 0 to 100 scale (0 no effect, 100 complete control); for Plant response rating, Pigweed: 125 g ai/ha; for Pigweed plant response rating: 500 g ai/ha, visual injury vs untreated controls after approx. 10 days
Summary of the method: as §1

kochia (Bassia scoparia) [9] = assay: Test A preemergence, kochia; conditions: Preemergence, 0 to 100 scale (0 no effect, 100 complete control)
Summary of the method: as §1

[10] = test system: barnyardgrass (Echinochloa crus-galli); assay: Test A postemergence, barnyardgrass; conditions: Postemergence, 0 to 100 scale (0 no effect, 100 complete control); for Plant response rating, Barnyardgrass: 125 g ai/ha; for Barnyardgrass plant response rating: 500 g ai/ha, visual injury vs untreated controls after approx. 10 days
Summary of the method: as §2

kochia (Bassia scoparia) [11] = assay: Test A postemergence, kochia; conditions: Postemergence, 0 to 100 scale (0 no effect, 100 complete control); for Plant response rating, Kochia: 125 g ai/ha; for Kochia plant response rating: 500 g ai/ha, visual injury vs untreated controls after approx. 10 days
Summary of the method: as §1

[12] = test system: ragweed (common ragweed, Ambrosia artemisiifolia); assay: Test A preemergence, ragweed; conditions: Preemergence, 0 to 100 scale (0 no effect, 100 complete control)
Summary of the method: as §1

[13] = test system: blackgrass (Alopecurus myosuroides); assay: Test A postemergence, blackgrass; conditions: Postemergence, 0 to 100 scale (0 no effect, 100 complete control); for Plant response rating, Blackgrass: 125 g ai/ha; for Blackgrass plant response rating: 500 g ai/ha, visual injury vs untreated controls after approx. 10 days
Summary of the method: as §1

[14] = test system: Foxtail, Giant (giant foxtail, Setaria faberi); assay: Test A preemergence, Foxtail, Giant; conditions: Preemergence, 0 to 100 scale (0 no effect, 100 complete control)
Summary of the method: as §1

[15] = test system: ragweed (common ragweed, Ambrosia artemisiifolia); assay: Test A postemergence, ragweed; conditions: Postemergence, 0 to 100 scale (0 no effect, 100 complete control); for Plant response rating, Ragweed: 125 g ai/ha; for Ragweed plant response rating: 500 g ai/ha, visual injury vs untreated controls after approx. 10 days
Summary of the method: as §1

corn (Zea mays) = assay: Test A postemergence, corn; conditions: Postemergence, 0 to 100 scale (0 no effect, 100 complete control); for Plant response rating, Corn: 125 g ai/ha; for Corn plant response rating: 500 g ai/ha, visual injury vs untreated controls after approx. 10 days
Summary of the method: as §1

[16] = 125 g ai/ha, visual injury, approx. 10 days

| SMILES | Plant response rating, Foxtail, Giant [1] | Foxtail, Giant plant response rating [1] | Plant response rating, Pigweed [2, 16] | Plant response rating, Pigweed ([2]; 500 g ai/ha) | Plant response rating, Barnyardgrass [3, 16] | Plant response rating, Barnyardgrass ([3]; 500 g ai/ha) | Plant response rating, Ryegrass, Italian [4, 16] | Plant response rating, Ryegrass, Italian ([4]; 500 g ai/ha) | Plant response rating, Galium [5] | Galium plant response rating [5] | Plant response rating, Ryegrass, Italian [6] | Ryegrass, Italian plant response rating [6] | Plant response rating, Wheat [7] | Wheat plant response rating [7] | Plant response rating, Pigweed [8] | Pigweed plant response rating [8] | Plant response rating, Kochia (kochia (Bassia scoparia) [9]; [16]) | Plant response rating, Kochia (kochia (Bassia scoparia) [9]; 500 g ai/ha) | Plant response rating, Barnyardgrass [10] | Barnyardgrass plant response rating [10] | also measured |
| --- | --- | --- | --- | --- | --- | --- | --- | --- | --- | --- | --- | --- | --- | --- | --- | --- | --- | --- | --- | --- | --- |
| Cc1cc(F)c(C(=O)N(C)C)cc1N(S(=O)(=O)C(F)(F)F)S(=O)(=O)C(F)(F)F [Compound 216] | 0 | 20 | 80 | 100 | 40 | 80 | 30 | 90 | 50 | 70 | 0 | 70 | 0 | 70 | 30 | 70 | 100 | 90 | 0 | 50 | Plant response rating, Kochia (kochia (Bassia scoparia) [11]): 20; Kochia plant response rating (kochia (Bassia scoparia) [11]): 30; Plant response rating, Ragweed [12, 16]: 0; Plant response rating, Ragweed ([12]; 500 g ai/ha): 30; Plant response rating, Blackgrass [13]: 0; Blackgrass plant response rating [13]: 30; Plant response rating, Foxtail, Giant [14, 16]: 20; Plant response rating, Foxtail, Giant ([14]; 500 g ai/ha): 90; Plant response rating, Ragweed [15]: 10; Ragweed plant response rating [15]: 60; Plant response rating, Corn (corn (Zea mays)): 30; Corn plant response rating (corn (Zea mays)): 40 |
| Cc1cc(Cl)c(N(S(=O)(=O)C(F)(F)F)S(=O)(=O)C(F)(F)F)cc1C1=NOC2(CCCCC2)C1 [Compound 217] | 0 | 0 | 70 | 100 | 90 | 100 | 80 | 100 | 80 | 90 | 0 | 0 | 0 | 30 | 40 | 80 | 70 | 90 | 0 | 30 | Plant response rating, Kochia (kochia (Bassia scoparia) [11]): 50; Kochia plant response rating (kochia (Bassia scoparia) [11]): 70; Plant response rating, Ragweed [12, 16]: 60; Plant response rating, Ragweed ([12]; 500 g ai/ha): 90; Plant response rating, Blackgrass [13]: 0; Blackgrass plant response rating [13]: 20; Plant response rating, Foxtail, Giant [14, 16]: 90; Plant response rating, Foxtail, Giant ([14]; 500 g ai/ha): 100; Plant response rating, Ragweed [15]: 60; Ragweed plant response rating [15]: 70; Plant response rating, Corn (corn (Zea mays)): 0; Corn plant response rating (corn (Zea mays)): 20 |
| CC(=O)OCN(c1cc(C2=NOC3(CCCC3)C2)c(C)cc1C)S(=O)(=O)C(F)(F)F [Compound 218] | 50 | 90 | 80 | 90 | 100 | 100 | 100 | 100 | 60 | 80 | 30 | 80 | 10 | 70 | 50 | 80 | 30 | 60 | 80 | 90 | Plant response rating, Kochia (kochia (Bassia scoparia) [11]): 60; Kochia plant response rating (kochia (Bassia scoparia) [11]): 80; Plant response rating, Ragweed [12, 16]: 20; Plant response rating, Ragweed ([12]; 500 g ai/ha): 90; Plant response rating, Blackgrass [13]: 10; Blackgrass plant response rating [13]: 40; Plant response rating, Foxtail, Giant [14, 16]: 100; Plant response rating, Foxtail, Giant ([14]; 500 g ai/ha): 100; Plant response rating, Ragweed [15]: 40; Ragweed plant response rating [15]: 80; Plant response rating, Corn (corn (Zea mays)): 10; Corn plant response rating (corn (Zea mays)): 70 |
| CSC(=O)N(c1cc(C2=NOC3(CCCC3)C2)c(C)cc1C)S(=O)(=O)C(F)(F)F [Compound 219] | 0 | 20 | 40 | 60 | 0 | 100 | 50 | 60 | 50 | 70 | 20 | 50 | 0 | 0 | 40 | 70 | 20 | 40 | 0 | 70 | Plant response rating, Kochia (kochia (Bassia scoparia) [11]): 30; Kochia plant response rating (kochia (Bassia scoparia) [11]): 60; Plant response rating, Ragweed [12, 16]: 0; Plant response rating, Ragweed ([12]; 500 g ai/ha): 0; Plant response rating, Blackgrass [13]: 0; Blackgrass plant response rating [13]: 0; Plant response rating, Foxtail, Giant [14, 16]: 50; Plant response rating, Foxtail, Giant ([14]; 500 g ai/ha): 90; Plant response rating, Ragweed [15]: 20; Ragweed plant response rating [15]: 50; Plant response rating, Corn (corn (Zea mays)): 0; Corn plant response rating (corn (Zea mays)): 0 |

Reference: patent US20230278972A1, “SUBSTITUTED HALOALKYL SULFONANILIDE HERBICIDES” (FMC Corporation, priority 2020, published 2023)
